Measured values: BindingDB's records for patent US12497392 (Hinova Pharmaceuticals, 2025)

Key:
[1] = biological target: T1, Histone acetyltransferase p300 [1049-1156] (UniProt Q09472); assay: Inhibitory Activity of Compounds on the Bromodomain (BRD) of CBP/EP300
T1 construct: 1049-1156
T1 sequence (Q09472 whole entry): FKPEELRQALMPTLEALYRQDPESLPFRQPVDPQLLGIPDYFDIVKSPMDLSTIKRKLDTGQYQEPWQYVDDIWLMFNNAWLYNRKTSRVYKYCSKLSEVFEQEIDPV
Method: (§1) A. Experimental MethodCBP and EP300AlphaScreen Test:1. Prepare 1× concentration of test buffer2. Preparation of compoundThe compound was firstly diluted in a ratio of 1:1000 relative to the final concentration using a Precision automatic sampler (by 3× gradient dilution method):1) 50 μL of compound solution with a storage concentration of 10 mM was transferred to A2 well of a 96-well plate using an Echo automatic sampler.2) 30 μL of DMSO was transferred to well A1, and wells A3 to A12 with Precision™.3) 15 μL solution was transferred from A2 to A3 by Precision, and this operation was sequentially repeated until 15 μL solution was transferred from well A10 to well A11. Thus, a 1:3 gradient dilution was completed.4) The compound plate was centrifuged at a speed of 1000 r/min for one minute.3. Preparation of test plate20 nL of solution was transferred from each concentration well of the compound plate to the test plate using an Echo automatic sampler: from well A1 of the preparation plate to wells A1 and A2 of the test plate, and from well A2 of the preparation plate to wells A3 and A4 of the test plate.4. Binding test of bromodomain (BRD)1) Preparation of 2-fold solution of protein and polypeptideThe protein and polypeptide were dissolved in a 1× concentration of detection buffer.2) 10 μL of protein and polypeptide solution was transferred to each well in columns 3 to 24 in the test plate, and 10 μL of 1× test buffer was transferred to wells in columns 1 to 2 in the test plate as negative control.3) The test plate was centrifuged at a speed of 1000 r/min for one minute.4) The test plate was incubated at room temperature for 15 min.5) A 2-fold receptor and donor solution was prepared by dissolving acceptor and donor beads with one-fold test buffer.6) 2-fold receptor and donor solutions were transferred to the test plate.15 μL of acceptor and donor solution was added and light was avoided.7) The test plate was centrifuged at a speed of 1000 r/min for one minute and then incubated at room temperature for 60 min.5. The Endpoints were Read in EnSpire and Alpha Modes.6. Curve fitting

[2] = biological target: T2, CREB-binding protein [1085-1192] (UniProt Q92793); assay: as above
T2 construct: 1085-1192
T2 sequence (Q92793 1085-1192): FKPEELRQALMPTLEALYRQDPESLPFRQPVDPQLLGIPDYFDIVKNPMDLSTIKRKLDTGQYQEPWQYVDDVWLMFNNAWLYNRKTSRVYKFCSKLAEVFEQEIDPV
Method: as §1

Row | IC50 [1] [nM] | IC50 [2] [nM] | SMILES
1 | 2.2 | 4.8 | CO[C@H]1CC[C@H](n2c([C@@H]3CCOCC(=O)N3C3=CC(F)C(F)C=C3)nc3cc(C4C(C)=NOC4C)ccc32)CC1 (stereo partly specified) [US12497392, Compound 106]
2 | 9.6 | 22 | COc1cccc(-c2nc3cc(C4C(C)=NOC4C)ccc3n2[C@H]2CC[C@H](OC)CC2)c1C1=CC(F)C(F)C=C1 (stereo partly specified) [US12497392, Compound 141]
3 | 2.7 | 4.7 | CO[C@H]1C[C@@H](n2c([C@@H]3CCOC(=O)N3C3=CC(F)C(F)C=C3)nc3cc(C4C(C)=NOC4C)ccc32)C1 (stereo partly specified) [US12497392, Compound 143]
